In ChEMBL document CHEMBL4706648, “Antitubercular 2-Pyrazolylpyrimidinones: Structure-Activity Relationship and Mode-of-Action Studies” (J Med Chem, 2021):
≈ marks a conversion by molar mass, not a printed value.

Assays:
Format in all cases: functional, H37Rv
Conditions in all cases: time 7-14 day
[1] = tested on: Mycobacterium tuberculosis
[2] = tested on: Mycobacterium tuberculosis; remark: listed apart in the source
[3] = tested on: Mycobacterium tuberculosis; remark: listed apart in the source
[4] = tested on: Mycobacterium tuberculosis; remark: listed apart in the source

| SMILES | MIC [1] [µM] | MIC [2] [µM] | MIC [3] [µM] | MIC [4] [µM] |
| --- | --- | --- | --- | --- |
| CC(=O)Nc1cc(C)nn1-c1nc(-c2ccccc2)cc(=O)[nH]1 | 24 (≈ 7.42 µg/mL) |  |  |  |
| COCCNc1cc(C)nn1-c1nc(C(F)(F)F)cc(=O)[nH]1 | 1.9 (≈ 0.603 µg/mL) | 39 (≈ 12.4 µg/mL) |  |  |
| Cc1cc(Nc2ccc(F)cc2)n(-c2nc(C(F)(F)F)cc(=O)[nH]2)n1 | 1 (≈ 0.353 µg/mL) |  |  |  |
| Cc1cc(C)n(-c2nc(O)cc(-c3ccccc3)n2)n1 | 1.9 (≈ 0.506 µg/mL) | 18 (≈ 4.79 µg/mL) | 16 (≈ 4.26 µg/mL) | 40 (≈ 10.7 µg/mL) |
| Cc1cc(C)n(-c2nc(C(F)(F)F)cc(=O)[nH]2)n1 | 17 (≈ 4.39 µg/mL) | 170 (≈ 43.9 µg/mL) |  |  |
| CCNc1cc(C)nn1-c1nc(-c2cccnc2)cc(=O)[nH]1 | 5.5 (≈ 1.63 µg/mL) | 41 (≈ 12.1 µg/mL) |  |  |
| Cc1ccc(Nc2cc(C)nn2-c2nc(C)cc(O)n2)cc1 | 5.4 (≈ 1.59 µg/mL) | 55 (≈ 16.2 µg/mL) | 45 (≈ 13.3 µg/mL) | 110 (≈ 32.5 µg/mL) |
